Experimental data: patent publication US4341784A, “Naphthyridine derivatives” (priority 1979, dated 1982)
“Also recorded” adds a separate entry of the source. Read-outs that look alike come from different tables or passages of the source.

What was measured:
Escherichia coli P-5101 [1] = assay: In vivo efficacy against systemic infections in mice (intraperitoneal infection); set-up: species or system male mice (ddY); conditions: P5101, 168 h, po, twice, about 5 minutes and 6 hours after intraperitoneal infection, observed 7 days
Description: Each of the solutions was orally administered to mice infected with each of test organisms under the conditions described below, and the medium effective doses (ED50) obtained are shown in Table II. Male mice (ddY) weighing about 20 g (3) Escherichia coli P-5101: Intraperitoneal infection with about 9×10^6 cells per mouse suspended in trypto-soy broth with 4% mucin. Twice, about 5 minutes and 6 hours after infection. |Escherichia coli P-5101 for 7 days | The numerals in the table show ED50 (mg/kg). ED50 values were | calculated in accordance with the BehrensKaerber method (Arch. Exp. Path. | Pharm., 162, 480 (1931)). | po: oral administration.

[2] = tested on: Gram-positive and Gram-negative bacteria including Pseudomonas aeruginosa; assay: In vitro antibacterial activity, overall; assay type: cell-based; conditions: for in vitro antibacterial activity compared with known compounds (in words): b258: Gram-negative bacteria, versus Compounds A, B, D and E, b33: versus compounds A and B; for antibacterial activity (in words): in vitro, Gram-positive and Gram-negative bacteria
Description: (§1) The minimum inhibitory concentrations (MIC, μg/ml) of the following compounds in vitro were measured by the agar dilution method of [Chemotherapy, Vol. 22, No. 16, page 1126 (1974)].

in vivo = conditions: for LD50 at 168 h: mouse, in vivo, po; for acute oral toxicity (in words): hydrochloride
Description: A solution containing each of Compounds 1 and 2 of this invention in various concentrations was orally given to male mice (ddY) at a dose of 0.1 ml per 10 g of body weight. The number of dead mice was counted after 7 days, and the value of median lethal dose (LD50, mg/kg) was calculated in accordance with the Behrens-Kaerber method.

[3] = tested on: Serratia marcescens IFO 3736; assay: In vitro antibacterial activity (MIC, agar dilution method); assay type: cell-based; conditions: IFO3736; Serratia marcescens IFO 3736; agar dilution; read-out: minimum inhibitory concentration (MIC)
Description: as §1

[4] = tested on: Corynebacterium pyogenes C-21; assay: as above; assay type: cell-based; conditions: C21; Corynebacterium pyogenes C-21; agar dilution; read-out: minimum inhibitory concentration (MIC)
Description: as §1

[5] = tested on: Staphylococcus aureus 209P JC-1; assay: as above; assay type: cell-based; conditions: Staphylococcus aureus 209P JC-1; agar dilution; read-out: minimum inhibitory concentration (MIC)
Description: as §1

[6] = tested on: Pseudomonas aeruginosa Tsuchiijima; assay: as above; assay type: cell-based; conditions: Pseudomonas aeruginosa Tsuchiijima; agar dilution; read-out: minimum inhibitory concentration (MIC)
Description: as §1

[7] = tested on: Salmonella typhimurium S-9; assay: as above; assay type: cell-based; conditions: Salmonella enterica; Salmonella typhimurium S-9; agar dilution; read-out: minimum inhibitory concentration (MIC)
Description: as §1

Shigella flexneri 2a = assay: as above; assay type: cell-based; conditions: read-out: minimum inhibitory concentration (MIC)
Description: as §1

[8] = tested on: Salmonella enteritidis No. 1891; assay: as above; assay type: cell-based; conditions: Salmonella enterica; Salmonella enteritidis No. 1891; agar dilution; read-out: minimum inhibitory concentration (MIC)
Description: as §1

Proteus morganii Kono = assay: as above; assay type: cell-based; conditions: Morganella morganii; Proteus morganii Kono; agar dilution; read-out: minimum inhibitory concentration (MIC)
Description: as §1

[9] = tested on: Staphylococcus aureus No. 80; assay: as above; assay type: cell-based
Description: as §1

[10] = tested on: Staphylococcus aureus No. 50774; assay: as above; assay type: cell-based; conditions: Staphylococcus aureus No. 50774; agar dilution; read-out: minimum inhibitory concentration (MIC)
Description: as §1

[11] = tested on: Escherichia coli NIHJ JC-2; assay: as above; assay type: cell-based
Description: as §1

[12] = tested on: Pseudomonas aeruginosa No. 12; assay: as above; assay type: cell-based; conditions: Pseudomonas aeruginosa No. 12; agar dilution; read-out: minimum inhibitory concentration (MIC)
Description: as §1

Proteus mirabilis P-2381 = assay: as above; assay type: cell-based; conditions: P2381; Proteus mirabilis P-2381; agar dilution; read-out: minimum inhibitory concentration (MIC)
Description: as §1

Escherichia coli P-5101 [13] = assay: as above; assay type: cell-based; conditions: P5101; Escherichia coli P-5101; agar dilution; read-out: minimum inhibitory concentration (MIC)
Description: as §1

[14] = tested on: Shigella flexneri 4a P-330; assay: as above; assay type: cell-based; conditions: 4AP330, read-out: minimum inhibitory concentration (MIC)
Description: as §1

[15] = tested on: Staphylococcus epidermidis No. 8; assay: as above; assay type: cell-based; conditions: Staphylococcus epidermidis No. 8; agar dilution; read-out: minimum inhibitory concentration (MIC)
Description: as §1

[16] = tested on: Staphylococcus aureus Smith; assay: as above; assay type: cell-based; conditions: Staphylococcus aureus Smith; agar dilution; read-out: minimum inhibitory concentration (MIC)
Description: as §1

[17] = tested on: Enterobacter cloacae P-2540; assay: as above; assay type: cell-based; conditions: P2540; Enterobacter cloacae P-2540; agar dilution; read-out: minimum inhibitory concentration (MIC)
Description: as §1

[18] = tested on: Streptococcus pyogenes 65A; assay: as above; assay type: cell-based; conditions: Streptococcus pyogenes 65A; agar dilution; read-out: minimum inhibitory concentration (MIC)
Description: as §1

[19] = tested on: Klebsiella pneumoniae No. 13; assay: as above; assay type: cell-based; conditions: Klebsiella pneumoniae No. 13; agar dilution; read-out: minimum inhibitory concentration (MIC)
Description: as §1

[20] = tested on: Streptococcus faecalis P-2473; assay: as above; assay type: cell-based; conditions: Enterococcus faecalis, P2473; Streptococcus faecalis P-2473; agar dilution; read-out: minimum inhibitory concentration (MIC)
Description: as §1

Escherichia coli P-140a = assay: as above; assay type: cell-based; conditions: P140A; Escherichia coli P-140a; agar dilution; read-out: minimum inhibitory concentration (MIC)
Description: as §1

| SMILES | ED50 (Escherichia coli P-5101 [1]) [mg/kg] | in vitro antibacterial activity compared with known compounds (in words) [2] | antibacterial activity (in words) [2] | LD50 at 168 h (in vivo) [mg/kg] | acute oral toxicity (in words) (in vivo) | MIC [3] [µg/mL] | MIC [4] [µg/mL] | MIC [5] [µg/mL] | MIC [6] [µg/mL] | MIC [7] [µg/mL] | MIC (Shigella flexneri 2a) [µg/mL] | MIC [8] [µg/mL] | MIC (Proteus morganii Kono) [µg/mL] | MIC [10] [µg/mL] | MIC [12] [µg/mL] | MIC (Proteus mirabilis P-2381) [µg/mL] | MIC (Escherichia coli P-5101 [13]) [µg/mL] | MIC [14] [µg/mL] | MIC [15] [µg/mL] | MIC [16] [µg/mL] | also measured |
| --- | --- | --- | --- | --- | --- | --- | --- | --- | --- | --- | --- | --- | --- | --- | --- | --- | --- | --- | --- | --- | --- |
| CCn1cc(C(=O)O)c(=O)c2cc(F)c(N3CCC(NC)C3)nc21.Cl (stereo not drawn) [Compound 2, 1-Ethyl-6-fluoro-1,4-dihydro-7-(3-methylamino-1-pyrrolidinyl)-4-oxo-1,8-naphthyridine-3-carboxylic acid hydrochloride] | 1.4 | far better in vitro antibacterial activity | very high antibacterial activities | > 2000 | very weak; also recorded: low oral toxicity | 1.56 | 1.56 | 0.78 | 0.78 | 0.2 | 0.2 | 0.1 | 0.39 | 0.78 | 1.56 | 1.56 | 0.2 | 0.1 | 0.39 | 0.78 | MIC ([9]; Staphylococcus aureus No. 80, agar dilution, read-out: minimum inhibitory concentration (MIC)): 0.78 µg/mL; MIC ([11]; Escherichia coli, NIHJJC2, read-out: minimum inhibitory concentration (MIC)): 0.2 µg/mL; MIC [17]: 0.39 µg/mL; MIC [18]: 3.13 µg/mL; MIC [19]: 0.39 µg/mL; MIC [20]: 6.25 µg/mL; MIC (Escherichia coli P-140a): 0.1 µg/mL |
| CCn1cc(C(=O)O)c(=O)c2cc(F)c(N3CCC(N)C3)nc21.Cl (stereo not drawn) [Compound 1, 7-(3-Amino-1-pyrrolidinyl)-1-ethyl-6-fluoro-1,4-dihydro-4-oxo-1,8-naphthyridine-3-carboxylic acid hydrochloride] | 1.7 | far better in vitro antibacterial activity | very high antibacterial activities | > 2000 | very weak; also recorded: low oral toxicity | 0.39 | 0.39 | 0.2 | 0.78 | 0.1 | 0.1 | 0.1 | 0.2 | 0.2 | 0.78 | 0.39 | 0.1 | 0.1 | 0.2 | 0.39 | MIC ([9]; Staphylococcus aureus, NO.80, read-out: minimum inhibitory concentration (MIC)): 0.39 µg/mL; MIC ([11]; NIHJJC2, Escherichia coli NIHJ JC-2, agar dilution, read-out: minimum inhibitory concentration (MIC)): 0.2 µg/mL; MIC [17]: < 0.05 µg/mL; MIC [18]: 1.56 µg/mL; MIC [19]: 0.2 µg/mL; MIC [20]: 3.13 µg/mL; MIC (Escherichia coli P-140a): < 0.05 µg/mL |
